Results reported in US20180271863A1, “TARGETING P2 PURINERGIC RECEPTORS TO TREAT HEPATOCELLULAR CARCINOMA (HCC)” (Baylor College of Medicine, priority 2015, published 2018).

Experiments:
Huh7 cells [1] = experiment: Western blotting for survivin in Huh7 cells; assay type: cell-based, human
Text: Total protein extracts were obtained by homogenizing cells in total lysis buffer and analyzed by Western blotting as described recently (Oncotarget 2015; 6:41162-41179). Next, Applicants tested whether extracellular nucleotide treatment may have an effect on YAP target genes important in hepatocellular carcinoma. […] Moreover, P2X3 antagonist (AF-353) pretreatment attenuated ATP mediated induction of survivin (FIG. 20G).

[2] = tested on: Huh7 cells overexpressing P2X3; experiment: BrdU incorporation in Huh7 cells transfected with P2X3 or pCMV6 vector; assay type: cell-based, human
Procedure: Thereafter, these cells were treated with ATP+/-P2X3 antagonist, AF-353. […] Huh7 cells were maintained in MEM with 10% fetal bovine serum (FBS), 5% L-Glutamine and 5% Penicillin-streptomycin overnight. P2X3 or pCMV6 vector control plasmids (1 m) were transfected with Turbofectin 8.00 (Origene Technologies, Rockville, Md.) in MEM with 5% L-Glutamine. Media was […] hours, according to manufacturer's instructions. Formalin-fixed and paraffin embedded liver sections from HCC patients were analyzed by immunohistochemistry with anti-P2X3 antibody (Abcam, Cambridge, Mass.). HCC cells were grown on glass coverslips; BrdU (10 μM, Roche, Indianapolis, Ind.) was added to culture media for 1 h prior to fixation (cold acetone:methanol, 1:1) and stained using anti-BrdU antibody (DAKO, Carpinteria, Calif.) and DAB Peroxidase Substrate Kit (Vector Labs, Burlingame, Calif.), according to manufacturer's instructions. Counterstaining was done with hematoxylin. BrdU positive cells were counted and expressed as a percentage of the total number of cells in ten randomly selected high-power fields (20×) per coverslips.

Huh7 cells [3] = experiment: Western blotting for hippo pathway phosphorylation (Mst1/2, LATS, Yap) in Huh7 cells; assay type: cell-based, human; conditions: for Mst1/2 phosphorylation: Huh7, serum free 24 hours, as early as 5 minutes, sustained at 4 hours; for induction of Yap phosphorylation: Huh7, 12 h treatment
Procedure: Total protein extracts were obtained by homogenizing cells in total lysis buffer and analyzed by Western blotting as described recently (Oncotarget 2015; 6:41162-41179). […] Therefore, Applicants performed in vitro studies to test whether activation of P2 purinergic receptors may affect the hippo pathway and its downstream effectors. Huh7 cells—human derived hepatocellular carcinoma cells—maintained in serum free media for 24 hours—were treated with P2 purinergic receptor agonists. […] ADP treatment alone was also sufficient to induce LATs phosphorylation (2 h-1.7 fold, 4 h-1.5 fold) (FIG. 20B). […] Hippo kinases Mst1/2 and Lats1/2 work through a phosphorylation cascade to phosphorylate Yap, thereby retaining Yap in the cytoplasm. In spite of nucleotide-mediated Mst1/2 and Lats phosphorylation, ATP, ADP and ATPγS treatment was individually insufficient to induce Yap phosphorylation. […] Similarly, ATP treatment alone increased nuclear YAP protein expression (1.7 fold) (FIG. 20D).

Huh7 cells [4] = experiment: Western blotting of Huh7 nuclear fractions for YAP; assay type: cell-based, human; conditions: 24 h treatment
Text: Total protein extracts were obtained by homogenizing cells in total lysis buffer and analyzed by Western blotting as described recently (Oncotarget 2015; 6:41162-41179). Hippo kinases Mst1/2 and Lats1/2 work through a phosphorylation cascade to phosphorylate Yap, thereby retaining Yap in the cytoplasm. In spite of nucleotide-mediated Mst1/2 and Lats phosphorylation, ATP, ADP and ATPγS treatment was individually insufficient to induce Yap phosphorylation. […] Similarly, ATP treatment alone increased nuclear YAP protein expression (1.7 fold) (FIG. 20D).

human hepatocytes = experiment: MTT assay of cell proliferation and viability, human hepatocytes; assay type: cell-based; conditions: 18 h treatment
Procedure: Normal human primary hepatocytes isolated from healthy adults (no known history of HCC) in suspension or freshly-frozen prior to shipment (Cryoport Systems, CA) were purchased from Triangle Research Labs, NC. Fresh hepatocytes were plated on collagen-coated tissue culture plates or glass coverslips in Williams E complete media with additives (10% fetal bovine serum, 2 mM glutamine, […] insulin, 4 ng/ml glucagon, […] transferrin, 2.5 ng/ml sodium selenite, 10,000 U/ml penicillin, […] streptomycin, 50 g/ml gentamycin) for 3 h to ensure hepatocyte adherence to plates. Subsequently, hepatocytes were maintained in Williams E minimal media free from serum and growth factors for 24 h prior to treatment. Human hepatocellular carcinoma derived Huh7, and Hep3B, were cultured in Minimum Essential Medium Eagle (MEM); SNU-387 was cultured in Roswell Park Memorial Institute (RPMI) medium and PLC/PRF/5 cultured in Dulbecco's Modified Eagle's medium (DMEM). All maintenance culture media were supplemented with 10% fetal bovine serum (FBS), L-Glutamine (2 mM), penicillin (100 units/ml) and streptomycin ([…]) at 37° C. and 5% CO2. […]
Cell viability was determined using the 3-(4, 5-dimethylthiazol-2-yl)-2,5-diphenyltetrazolium (MTT, Sigma) assays. […] After shaking the plates for 30 min, the absorbance at 570 nm was measured (background subtraction at […]).

Huh7 cells [5] = experiment: qRT-PCR of YAP target genes in Huh7 cells; assay type: cell-based, human; conditions: 24 h treatment
Text: Total RNA was isolated from human livers or cells and was amplified by qRT-PCR as described recently (Oncotarget 2015; 6:41162-41179). Next, Applicants tested whether extracellular nucleotide treatment may have an effect on YAP target genes important in hepatocellular carcinoma. […] Moreover, P2X3 antagonist (AF-353) pretreatment attenuated ATP mediated induction of survivin (FIG. 20G).

[6] = transfected Huh7, ATP 100 μM, 24 h

Compound	effect on ATP mediated induction of survivin (Huh7 cells [1]; AF-353 pretreatment)	effect on P2X3 mediated increase in proliferation (BrdU) ([2]; P2X3-overexpressing Huh7, AF-353 5 μM, 24 h)	effect on ATP mediated increase in BrdU incorporation ([2]; transfected Huh7, AF-353 5 μM pre-treatment, ATP 100 μM 24 h)	Mst1/2 phosphorylation (Huh7 cells [3])	induction of Yap phosphorylation (Huh7 cells [3])	nuclear YAP protein expression compared to untreated cells (Huh7 cells [4])	increase in cell proliferation and viability (MTT) (human hepatocytes)	ATP mediated proliferation in P2X3-overexpressing cells vs cells transfected with only pCMV6 [2, 6]	BrdU incorporation compared to the pCMV6 control [2, 6]	AREG gene expression (Huh7 cells [5])	CTGF gene expression (Huh7 cells [5])	Sox9 gene expression (Huh7 cells [5])	cyclin E gene expression (Huh7 cells [5])	survivin gene expression (Huh7 cells [5])	survivin protein expression (Huh7 cells [1]; ATPγS treatment alone)
COc1cc(C(C)C)c(Oc2cnc(N)nc2N)cc1I [AF-353]	attenuated	completely attenuated	significantly attenuated												
Nc1ncnc2c1ncn2[C@@H]1O[C@H](COP(=O)(O)OP(=O)(O)OP(=O)(O)O)[C@@H](O)[C@H]1O [ATP]				significantly induced	insufficient	1.7 fold	27%	significantly higher	further increased	5.1 fold	3.4 fold	2.0 fold	2.1 fold	1.1 fold	
Nc1ncnc2c1ncn2[C@@H]1O[C@H](COP(=O)(O)OP(=O)(O)OP(O)(O)=S)[C@@H](O)[C@H]1O [ATPγS]				significantly induced	insufficient	2.8 fold	64%			3.3 fold	2.2 fold	1.6 fold	2.0 fold	1.1 fold	1.8 fold
